# Results published in ChEMBL document CHEMBL4152377, “Design and Activity of Specific Hypoxia-Inducible Factor-2α (HIF-2α) Inhibitors for the Treatment of Clear Cell Renal Cell Carcinoma: Discovery of Clinical Candidate ( S)-3-((2,2-Difluoro-1-hydroxy-7-(methylsulfonyl)-2,3-dihydro-1 H-inden-4-yl)oxy)-5-fluorobenzonitrile (PT2385)” (J Med Chem, 2018).
# How the values were obtained:
# [1] = target: T1, Cytochrome P450 2B6 (Homo sapiens, UniProt P20813); test: Inhibition of CYP2B6 in human liver microsomes using bupropion as substrate after 10 mins in presence of NADPH by LC-MS/MS analysis; assay type: ADME
# T1 sequence (P20813 whole entry): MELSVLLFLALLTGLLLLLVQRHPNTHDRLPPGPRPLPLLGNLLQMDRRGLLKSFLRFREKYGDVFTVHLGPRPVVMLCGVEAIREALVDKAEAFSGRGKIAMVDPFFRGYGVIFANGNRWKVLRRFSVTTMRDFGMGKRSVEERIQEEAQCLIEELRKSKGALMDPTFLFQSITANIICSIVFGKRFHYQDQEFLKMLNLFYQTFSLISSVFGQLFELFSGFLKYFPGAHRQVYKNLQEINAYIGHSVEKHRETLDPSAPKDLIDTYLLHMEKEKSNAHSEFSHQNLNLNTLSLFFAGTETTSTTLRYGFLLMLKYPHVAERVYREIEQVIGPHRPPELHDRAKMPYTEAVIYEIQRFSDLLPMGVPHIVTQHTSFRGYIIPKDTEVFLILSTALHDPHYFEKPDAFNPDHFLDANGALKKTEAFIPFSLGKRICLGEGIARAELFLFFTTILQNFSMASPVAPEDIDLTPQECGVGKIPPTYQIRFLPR
# [2] = target: Cytochrome P450 2C19 (Homo sapiens, UniProt P33261); test: Inhibition of CYP2C19 in human liver microsomes using S-mephenytoin as substrate after 20 mins in presence of NADPH by LC-MS/MS analysis; assay type: ADME
# [3] = target: T2, Cytochrome P450 2C8 (Homo sapiens, UniProt P10632); test: Inhibition of CYP2C8 in human liver microsomes using amodiaquine as substrate after 10 mins in presence of NADPH by LC-MS/MS analysis; assay type: ADME
# T2 sequence (P10632 whole entry): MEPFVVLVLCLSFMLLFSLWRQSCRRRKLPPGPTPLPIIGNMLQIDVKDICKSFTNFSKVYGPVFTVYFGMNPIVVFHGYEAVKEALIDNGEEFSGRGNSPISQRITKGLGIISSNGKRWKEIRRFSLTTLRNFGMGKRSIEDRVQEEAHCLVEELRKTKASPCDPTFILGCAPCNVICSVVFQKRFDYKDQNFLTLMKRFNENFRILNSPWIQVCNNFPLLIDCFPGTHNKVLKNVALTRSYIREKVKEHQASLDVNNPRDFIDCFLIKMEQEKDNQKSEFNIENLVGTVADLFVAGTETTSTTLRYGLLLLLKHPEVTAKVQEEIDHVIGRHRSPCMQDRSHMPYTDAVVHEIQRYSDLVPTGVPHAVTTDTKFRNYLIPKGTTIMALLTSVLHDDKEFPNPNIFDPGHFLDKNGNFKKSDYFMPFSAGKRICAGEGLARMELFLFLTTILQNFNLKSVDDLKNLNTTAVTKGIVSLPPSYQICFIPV
# [4] = Plasma concentration in mouse after 12 hrs; assay type: ADME, cell-free
# [5] = Half life in CD1 mouse at 10 mg/kg, po by UPLC analysis; assay type: ADME, organism-based; conditions: in vivo
# [6] = target: hERG (KCNH2) (Homo sapiens, UniProt Q12809); test: Inhibition of human ERG expressed in mammalian cells at 10 uM after 3 mins by QPatch clamp assay; assay type: cell-based; conditions: mammalian cells that express human ERG
# [7] = system: Rattus norvegicus; test: Drug metabolism in Sprague-Dawley rat assessed as formation of 3-( (4-( ( D ifluoromethyl)-1,1-dioxido-3-oxo-2,3-dihydrobenzo[b]thiophen-5-yl)oxy)-5-fluorobenzonitrile at 10 mg/kg, po by UPLC analysis; assay type: ADME, organism-based; conditions: in vivo
# Sequence of hERG (KCNH2) (Q12809 whole entry): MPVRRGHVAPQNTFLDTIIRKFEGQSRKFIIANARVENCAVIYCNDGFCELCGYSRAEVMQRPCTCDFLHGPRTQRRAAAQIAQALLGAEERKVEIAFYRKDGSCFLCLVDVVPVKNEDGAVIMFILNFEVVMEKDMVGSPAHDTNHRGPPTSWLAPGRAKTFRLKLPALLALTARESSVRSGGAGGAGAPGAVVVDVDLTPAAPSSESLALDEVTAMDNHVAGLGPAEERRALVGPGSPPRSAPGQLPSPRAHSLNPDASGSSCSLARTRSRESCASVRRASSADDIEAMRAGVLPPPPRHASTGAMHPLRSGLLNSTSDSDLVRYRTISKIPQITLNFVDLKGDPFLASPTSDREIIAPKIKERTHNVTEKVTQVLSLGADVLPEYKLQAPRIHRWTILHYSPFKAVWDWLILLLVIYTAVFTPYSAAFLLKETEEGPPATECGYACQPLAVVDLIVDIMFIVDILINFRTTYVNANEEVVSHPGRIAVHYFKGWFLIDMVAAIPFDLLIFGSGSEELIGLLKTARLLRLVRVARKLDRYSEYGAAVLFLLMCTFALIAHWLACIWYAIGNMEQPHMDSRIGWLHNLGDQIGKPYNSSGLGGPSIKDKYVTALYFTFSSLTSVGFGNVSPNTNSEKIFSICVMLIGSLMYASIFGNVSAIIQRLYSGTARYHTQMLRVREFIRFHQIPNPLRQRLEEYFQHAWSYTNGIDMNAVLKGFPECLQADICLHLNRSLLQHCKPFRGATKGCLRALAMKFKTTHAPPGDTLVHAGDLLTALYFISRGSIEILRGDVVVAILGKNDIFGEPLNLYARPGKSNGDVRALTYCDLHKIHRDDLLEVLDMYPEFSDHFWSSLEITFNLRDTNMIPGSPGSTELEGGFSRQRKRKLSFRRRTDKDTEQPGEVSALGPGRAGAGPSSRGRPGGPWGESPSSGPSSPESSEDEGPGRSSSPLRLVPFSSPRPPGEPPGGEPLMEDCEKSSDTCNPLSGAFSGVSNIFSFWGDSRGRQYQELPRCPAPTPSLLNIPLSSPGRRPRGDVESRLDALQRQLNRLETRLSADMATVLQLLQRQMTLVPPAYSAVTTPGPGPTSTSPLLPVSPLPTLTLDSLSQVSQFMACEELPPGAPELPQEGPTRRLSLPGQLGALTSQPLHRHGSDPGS
# Sequence of Cytochrome P450 2C19 (P33261 whole entry): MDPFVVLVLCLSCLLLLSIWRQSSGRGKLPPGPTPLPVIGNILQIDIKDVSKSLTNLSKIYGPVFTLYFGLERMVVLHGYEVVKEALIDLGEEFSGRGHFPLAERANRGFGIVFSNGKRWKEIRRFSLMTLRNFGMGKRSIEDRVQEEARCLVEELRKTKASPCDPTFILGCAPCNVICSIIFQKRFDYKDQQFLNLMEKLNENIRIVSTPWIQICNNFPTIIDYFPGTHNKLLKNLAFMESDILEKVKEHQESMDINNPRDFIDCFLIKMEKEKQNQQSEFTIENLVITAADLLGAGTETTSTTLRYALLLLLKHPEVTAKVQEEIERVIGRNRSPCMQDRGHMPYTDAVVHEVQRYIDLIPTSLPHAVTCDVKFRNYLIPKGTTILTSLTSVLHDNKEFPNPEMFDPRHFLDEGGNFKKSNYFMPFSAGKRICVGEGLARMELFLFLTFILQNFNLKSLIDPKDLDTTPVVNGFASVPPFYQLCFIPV
smiles,measurement,setting,value
CS(=O)(=O)c1ccc(Oc2cc(F)cc(C#N)c2)c2c1[C@H](O)C(F)(F)C2,IC50,[1],> 50 µM
same,IC50,[2],46 µM
same,IC50,[3],> 50 µM
same,concentration at 12 h,[4],460 nM
same,half-life,[5],3.3 h
same,"inhibition at 0.05 h, 10 µM",[6],8.2%
N#Cc1cc(F)cc(Oc2ccc3c(c2C(F)F)[C@@H](O)C(F)(F)S3(=O)=O)c1,IC50,[1],> 50 µM
same,IC50,[3],> 50 µM
same,concentration at 12 h,[4],220 nM
same,Drug metabolism,[7],Metabolite_Detected
same,half-life,[5],6.5 h
same,"inhibition at 0.05 h, 10 µM",[6],17%
